Laboratory results from EP1574213B1, “Use of histone deacetylase inhibitors for increasing therapeutic gain in radiotherapy and chemotherapy” (Asan Laboratories Company (Cayman), Limited, priority 2004, dated 2005).

What was measured:
[1] = system: irradiated skin; experiment: Radiation-induced skin reaction after 40Gy, gross skin score and H&E histology; format: in vivo, Sprague Dawley (SD) rats; conditions: for radiation-induced skin damage including acute dermatitis and desquamation, and late fibrosis, ulceration and necrosis: in words
Method: Adult female Sprague Dawley (SD) rats were purchased from the animal center of the National Science Council of Taiwan, and weighed 250-300g at the time of irradiation. Each rat was caged alone and allowed chow and water. They were anesthetized with pentobarbital 50mg/kg i.p. before irradiation. The skin over gluteal area was shaved completely and radiation fields with 2-cm diameter were outlined with a marking pen just prior to irradiation. An electron beam with 6MeV energy produced by a linear accelerator was used. The dose was delivered on Day 0 at 4Gy/min up to 40Gy to the prepared area. Each group treated with a histone deacetylase inhibitor was further divided into three subgroups animals (5 each) : one subgroup treated with skin irradiation followed by vehicle, another with skin irradiation followed by a histone deacetylase inhibitor, and the third with skin irradiation only. Then vaseline (negative control), madecassol ointment (positive control), or either vehicles or the 1% phenylbutyrate cream, 1% valproic acid cream, or 0.1% trichostatin A ointment were applied topically to the irradiated skin twice daily from Day 1 to Day 90 after irradiation. The mean dosage for each treatment in the respective groups was 16mg vaseline per cm^2 skin, 16mg madecassol per cm^2 skin, 50mg phenylbutyrate per cm^2 skin, 50mg valproic acid per cm^2 skin, 5mg trichostatin A per cm^2 skin, and an equivalent amount of the vehicle base for the control groups. The gross skin reactions were evaluated in all rats. Acute skin reactions were evaluated and scored every other day until the 90th day after irradiation using the modified skin score system (Abe Y. and Urano M. Fraction size-dependent acute skin reaction of mice after multiple twice-a-day doses. International Journal of Radiation Oncology, Biology, Physics. 18(2):359-64, 1990): 0=normal, 0.5=slight epilation, 1.0=epilation in about 50% of the radiated area, 1.5=epilation in greater than 50% of the area, 2.0=complete epilation, 2.5=complete epilation with definitive edema or dry desquamation in more than 50% of the area, 3.0=moist desquamation in a small area, 3.5=moist desquamation in most of the area.
The skin score increases with more severe skin reaction. On Day 11, the skin reactions in the groups treated with madecassol (positive control) or histone deacetylase inhibitors were less marked than those in the negative or vehicle control groups. By day 21, the epilation in the negative or vehicle groups had progressed to wet desquamation in most areas whereas in the madecassol or histone deacetylase inhibitor groups, it improved, and epithelium healing had begun quickly. […]

[2] = system: EBV thymidine kinase; experiment: EBV thymidine kinase activity assay; format: cell-based, Epstein-Barr virus (EBV); conditions: 1 nM for 48 hours; EBV-positive Daudi cells
Method: For EBV thimidine kinase activity assay, an equal amount of cytosol fraction was incubated with reaction buffer (50mM Tris-HCl pH 7.4, 1mg/ml BSA, 3mM creatine phosphate, 11.2U/ml creatine phosphokinase, 0.1µm [3H-8]-GCV (specific activity 13.5 Ci/mmol), 2.5mM ATP, 2.5mM MgCl2, 10mM NaF, 10mM DTT) at 37°C for 30 mins. The reaction mixtures were added on WhatmanR DE-81 ion exchange chromatography papers, which were then washed with 1.5mM NH4COOH three times to remove unphosphorylated form of [3H-8]-GCV. After air dry, these papers were incubated with liquid scintillation cocktail overnight. The phosphorylation form of [3H-8]-GCV bound on WhatmanR DE-81 ion exchange chromatography paper was measured by LS6500 scintillation counter (Beckman).
The combination of TSA, GCV and radiation produced selectively maximal death in EBV-positive cells but not in EBV-negative cells (FIG. 11B). Daudi cells (EBV+) and HL-60 (EBV-) were treated with ganciclovir (GCV) (10 µg/ml) and /or trichostatin A (TSA) (1 nM) for 48 hours, then radiated with or without 1 Gy radiation (RT). Viable cells were counted 1 week later.

[3] = system: TGF-β1, TGF-β2, and TNF-α; experiment: Cytokine mRNA in irradiated skin (RNase protection assay, northern blot); format: in vivo, rats; conditions: for radiation-induced TGF-β1, TGF-β2, and TNF-α expression: northern blot, irradiated skin
Method: (§1) The timing of the peak appearance of TGF-β1, TGF-β2, and TNF-α expression levels induced by radiation correlated with the beginning of development of radiation-induced damage (FIG. 4). Levels of TGF-β1, TGF-β2, TGF-β3, and TNF-α mRNA were assessed using a multiple cytokine RNase protection assay kit (Riboquant; Pharmingen, San Diego, CA) that contained a template set to allow for the generation of a 32P-labeled antisense RNA probe set that hybridized with the target mRNA for TGF-β1, TGF-β2, TGF-β3, TNF-α, and internal control GAPDH. After hybridization of labeled probe to target RNA, unprotected RNA was digested by a ribonuclease (RNase), and protected RNA fragments were resolved on a 6% polyacrylamide gel and recorded by phosphorimaging (Molecular Dynamics Corp., Sunnyvale, CA). Densitometry was used to quantify the amount of each mRNA species and was normalized to the internal control GAPDH.
The means of skin scores for skin reactions from five rats in each group were calculated. The average levels of cytokine/growth factor mRNA from three skin samples in each group were normalized to the internal control GAPDH and expressed as a ratio to the average level in time-matched control groups. The Mann-Whitney test (Stata Statistical Software, College Station, TX) was used to determine statistical significance at the p < 0.05 level for differences in average skin scores and in average mRNA levels, respectively, between treated and control rats.
Total RNA was isolated from frozen skin samples using Trigent (Molecular Research Center Inc., Cincinnati, OH). Total RNA (30 µg) was electrophoresed in a denaturing formaldehyde-agarose gel, blotted onto Hybond N (Amersham, Amersham, UK), and fixed by ultraviolet (UV) irradiation. The membrane was incubated with 32P-labeled probes, as described below, in Rapid-hyb buffer (Amersham). […]

[4] = system: CNE2 nasopharyngeal carcinoma cells; experiment: Tumor radiosensitization, colony formation; format: cell-based; conditions: for Radiation enhancement ratio (RER): 60 minutes prior to radiation, at 10% survival
Method: Radiation enhancement ratio (RER) is used to calculate the ratio of radiation doses that give the same effect. RER= (Radiation dose without drug treatment at 10% survival fraction)/(Radiation dose with drug treatment at 10% survival fraction).
Valproic acid (0.1 mM or 0.5 mM) was added in CNE2 nasopharyngeal carcinoma cells 60 minutes prior to radiation with radiation dose from 2 to 16 Gy, then washed out. After one week, colonies containing more than 50 cells were counted.

[5] = system: CT-26; experiment: Cutaneous tumor growth, topical treatment, CT-26; format: in vivo, BALB/c mice; conditions: 4 weeks; 200 mg/mouse twice per day topically
Method: (§2) The syngeneic carcinoma cells 1MEA7R.1 and CT-26 (purchased from American Type Culture Collection, Manassas, VA) were subcutaneously injected into the flank areas of female BALB/c mice. The tumor was allowed to a maximum dimension of 0.5 cm. Topical HDAC inhibitors or vehicle was applied at a dose of 200 mg/mouse to cover the whole tumor surface and surrounding skin twice per day for 4 weeks. The tumor size was calculated weekly with a caliper according to the formula ab2/2, where a and b are the larger and smaller diameters (in centimeters), respectively.
(§3) The topical PB formulation was show to have antitumor effects. […] Cutaneous tumors were allowed to grow to the largest dimension 0. 5 cm (FIG. 8D), and PB was topically applied to the tumor surface at 200 mg/mouse twice per day. By 4 weeks, the tumor sizes of 1MEA7R.1 and CT-26 carcinomas in the placebo groups were almost 6- and 1.6-fold larger than those in the PB-treated groups, respectively (FIGS. 8B-8C).

[6] = system: TNF-α; experiment: Immunohistochemistry of TNF-alpha in irradiated skin; format: in vivo, rats; conditions: Day 270
Source text: The decrease in late radiation-induced skin damage by topical PB was consistent with the suppression of TNF-α expression (FIG. 6).

[7] = system: 1MEA7R.1; experiment: Cutaneous tumor growth, topical treatment, 1MEA7R.1; format: in vivo, BALB/c mice; conditions: 4 weeks; 200 mg/mouse twice per day topically
Method: as §2, §3

[8] = system: p21Cip1; experiment: p21Cip1 protein level in carcinoma cells in vitro; format: cell-based; conditions: BNL 1MEA7R.1 and CT-26 carcinoma cells; 4 mM PB
[9] = system: syngeneic carcinoma cells 1MEA7R.1 and CT-26; experiment: Direct antitumor effect on cutaneous tumor growth (both tumors, summary); format: in vivo, BALB/c mice; conditions: withdrawal after 5 weeks of treatment
Method: as §2, with “Topical HDAC inhibitors or vehicle was applied at a dose of 200 mg/mouse to cover the whole tumor surface and surrounding skin twice per day for 4 weeks.” left out
as §3
The histological findings on skin specimens from 5 irradiated rats in each group are represented as follows: A, subepithelial swelling. B, dry desquamation in more than 50% of the area. C, wet desquamation in more than 50% of the area. D, atrophy of epidermis in most areas. E, atrophy of skin appendages in most areas. F, increased thickness of epithelium with more cell layers. G, increased collagen deposition, more vessel density, and increased thickness of dermis. H, chronic ulceration, necrosis, bullae formation, and more inflammatory cell infiltrate. […]

[10] = system: TGF-beta protein; experiment: Immunofluorescence with anti-TGF-beta1, 2 antibodies in irradiated skin; format: in vivo, rats; conditions: Day 180
Source text: The same pathological sections in example 4 were subjected to immunofluorescence with the anti-TGF-beta1, 2 antibodies.

[11] = system: radiation-induced tumors; experiment: Late radiation-induced skin tumor formation; format: in vivo, rats; conditions: 90 weeks, irradiated groups
Source text: The decrease of TGF-β expression caused by PB treatment might decrease the incidence of late radiation-induced tumorigenesis. […] The histology of radiation-induced tumors included fibroma, spindle cell sarcoma, basal cell carcinoma, and squamous cell carcinoma.

[12] = system: TGF-β3; experiment: TGF-β3 mRNA in irradiated skin (RNase protection assay); format: in vivo, rats; conditions: Vaseline, vehicle, or PB
Method: as §1
The means of skin scores for skin reactions from five rats in each group were calculated. The average levels of cytokine/growth factor mRNA from three skin samples in each group were normalized to the internal control GAPDH and expressed as a ratio to the average level in time-matched control groups. […]

SMILES	radiation-induced skin damage including acute dermatitis and desquamation, and late fibrosis, ulceration and necrosis [1]	EBV thymidine kinase activity [2]	radiation-induced TGF-β1, TGF-β2, and TNF-α expression [3]	Radiation enhancement ratio (RER) ([4]; 0.1 mM)	Radiation enhancement ratio (RER) ([4]; 0.5 mM)	tumor size in the placebo group relative to the PB-treated group [5] [fold]	rats showing chronic ulceration, necrosis, bullae formation, and inflammatory cell infiltration ([1]; Day 270)	TNF-α expression [6]	tumor size in the placebo group relative to the PB-treated group [7] [fold]	p21Cip1 [8]	time to reach the same size as control or placebo tumors after withdrawal [9] [weeks]	plating efficiency ([4]; versus control)	expression of TGF-beta [10]	cumulative tumor incident [11] [%]	mRNA levels of TGF-β1, TGF-β2, and TNF-α ([3]; Day 28-35 after irradiation)	differences in TGF-β3 mRNA levels between irradiated groups [12]
CC(/C=C/C(=O)NO)=C\[C@@H](C)C(=O)c1ccc(N(C)C)cc1 [TSA, Trichostatin A]	suppressing	up-regulated	decreased													
CCCC(CCC)C(=O)O [Valproic acid]	suppressing		decreased	1.2	1.7											
O=C(O)CCCc1ccccc1 [PB, Phenylbutyrate]	suppressing					~1.6	zero of five	suppression	~6	up-regulation	≤ 2	the same	suppressed effectively	0	returned to the non-irradiated control levels	No significant differences
